Source: US10208020B2, “Substituted amino triazoles useful as human chitinase inhibitors” (OncoArendi Therapeutics S.A., priority 2015, dated 2019)

Experiments:
recombinant human CHIT1 = recombinant human CHIT1 (Homo sapiens (Human), UniProt Q13231); assay: Human CHIT1 activity assay; format: biochemical; conditions: citrate buffer pH 5.2, 37° C., 60 minutes; 4-methylumbelliferyl β-D-N,N′,N″-triacetylchitotriose substrate; read-out: Activity on hCHIT1, IC50
recombinant human AMCase = recombinant human AMCase (Homo sapiens (Human), UniProt Q9BZP6); assay: Human AMCase activity assay; format: biochemical; conditions: citrate buffer pH 5.2, 37° C., 60 minutes; 4-methylumbelliferyl B-D-N,N′-diacetylchitobioside substrate; read-out: Activity on hAMCase, IC50
Sequence of recombinant human AMCase (Q9BZP6 22-476): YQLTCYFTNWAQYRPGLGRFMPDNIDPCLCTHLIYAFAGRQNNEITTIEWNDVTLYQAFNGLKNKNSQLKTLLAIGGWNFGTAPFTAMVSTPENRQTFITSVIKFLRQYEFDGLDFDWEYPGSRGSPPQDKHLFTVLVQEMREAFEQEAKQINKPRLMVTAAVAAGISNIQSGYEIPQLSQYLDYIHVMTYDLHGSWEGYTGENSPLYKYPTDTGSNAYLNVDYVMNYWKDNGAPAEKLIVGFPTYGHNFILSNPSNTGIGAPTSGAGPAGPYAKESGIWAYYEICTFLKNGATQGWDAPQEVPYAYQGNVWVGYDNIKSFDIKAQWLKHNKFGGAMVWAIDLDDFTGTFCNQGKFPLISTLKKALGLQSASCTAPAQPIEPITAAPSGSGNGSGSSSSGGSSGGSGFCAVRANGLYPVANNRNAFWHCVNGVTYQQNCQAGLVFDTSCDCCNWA

Sequence of recombinant human CHIT1 (Q13231 22-466): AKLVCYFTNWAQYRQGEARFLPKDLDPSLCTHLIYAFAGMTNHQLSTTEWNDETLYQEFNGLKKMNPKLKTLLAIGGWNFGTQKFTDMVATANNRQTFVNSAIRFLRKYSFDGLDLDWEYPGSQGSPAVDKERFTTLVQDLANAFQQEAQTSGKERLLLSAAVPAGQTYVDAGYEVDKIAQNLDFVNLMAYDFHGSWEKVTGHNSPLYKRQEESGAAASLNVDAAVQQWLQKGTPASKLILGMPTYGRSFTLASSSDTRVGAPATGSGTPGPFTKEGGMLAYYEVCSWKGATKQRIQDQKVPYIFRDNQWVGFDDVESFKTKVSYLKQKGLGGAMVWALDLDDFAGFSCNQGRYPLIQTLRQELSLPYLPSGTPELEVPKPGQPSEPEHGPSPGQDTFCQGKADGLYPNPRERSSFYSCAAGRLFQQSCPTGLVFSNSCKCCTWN

Nc1nnc(N2CCC(N3CCOC[C@@H]3Cc3ccc(Cl)cc3)CC2)[nH]1 [Example 1, (S)-5-(4-(3-(4-chlorobenzyl)morpholino)piperidin-1-yl)-4H-1,2,4-triazol-3-amine]
IC50 (recombinant human CHIT1): < 100 nM

Nc1nnc(N2CCC(N3CCOC[C@@H]3Cc3ccc(Br)cc3)CC2)[nH]1 [Example 3, (S)-5-(4-(3-(4-bromobenzyl)morpholino)piperidin-1-yl)-4H-1,2,4-triazol-3-amine]
IC50 (recombinant human CHIT1): < 100 nM

CCOC[C@H]1CN(C2CCN(c3nnc(N)[nH]3)CC2)[C@@H](Cc2ccc(Cl)cc2)CO1 [Example 11, 5-(4-((2R,5S)-5-(4-chlorobenzyl)-2-(ethoxymethyl)morpholino)piperidin-1-yl)-4H-1,2,4-triazol-3-amine]
IC50 (recombinant human AMCase): < 100 nM

COC(C)(C)[C@H]1CN(C2CCN(c3nnc(N)[nH]3)CC2)[C@@H](Cc2ccc(Cl)cc2)CO1 [Example 14, 5-(4-((2R,5S)-5-(4-chlorobenzyl)-2-(2-methoxypropan-2-yl)morpholino)piperidin-1-yl)-4H-1,2,4-triazol-3-amine]
IC50 (recombinant human AMCase): < 100 nM
IC50 (recombinant human CHIT1): < 100 nM

Nc1nnc(N2CCC(N3CCCC[C@@H]3Cc3ccc(Cl)cc3)CC2)[nH]1 [Example 15, (R)-5-(2-(4-chlorobenzyl)-[1,4′-bipiperidin]-1′-yl)-4H-1,2,4-triazol-3-amine]
IC50 (recombinant human CHIT1): < 100 nM

CCOC(=O)C1CC[C@H](Cc2ccc(Cl)cc2)N(C2CCN(c3nnc(N)[nH]3)CC2)C1 (stereo partly drawn) [Example 16, ethyl (6R)-1′-(5-amino-4H-1,2,4-triazol-3-yl)-6-(4-chlorobenzyl)-[1,4′-bipiperidine]-3-carboxylate]
IC50 (recombinant human CHIT1): < 100 nM

Nc1nnc(N2CCC(N3CC(C(=O)O)CC[C@@H]3Cc3ccc(Cl)cc3)CC2)[nH]1 (stereo partly drawn) [Example 17, (6R)-1′-(5-amino-4H-1,2,4-triazol-3-yl)-6-(4-chlorobenzyl)-[1,4′-bipiperidine]-3-carboxylic acid]
IC50 (recombinant human CHIT1): 100 to 1000 nM

CC1(C(=O)O)CC[C@H](Cc2ccc(Cl)cc2)N(C2CCN(c3nnc(N)[nH]3)CC2)C1 (stereo partly drawn) [Example 18, (6R)-1′-(5-amino-4H-1,2,4-triazol-3-yl)-6-(4-chlorobenzyl)-3-methyl-[1,4′-bipiperidine]-3-carboxylic acid]
IC50 (recombinant human CHIT1): 1000 to 10000 nM

Cc1ccc(S(=O)(=O)N2CCN(C3CCN(c4nnc(N)[nH]4)CC3)[C@@H](Cc3ccc(Cl)cc3)C2)cc1 [Example 35, (S)-5-(4-(2-(4-chlorobenzyl)-4-tosylpiperazin-1-yl)piperidin-1-yl)-4H-1,2,4-triazol-3-amine]
IC50 (recombinant human CHIT1): 10000 to 100000 nM

C[C@H]1CN(C2CCN(c3nnc(N)[nH]3)CC2)[C@@H](Cc2ccc(Cl)cc2)CN1S(C)(=O)=O [Example 37, 5-(4-((2S,5S)-2-(4-chlorobenzyl)-5-methyl-4-(methylsulfonyl)piperazin-1-yl)piperidin-1-yl)-4H-1,2,4-triazol-3-amine]
IC50 (recombinant human CHIT1): 10000 to 100000 nM

COC(=O)N1C[C@H](Cc2ccc(Cl)cc2)N(C2CCN(c3nnc(N)[nH]3)CC2)C[C@@H]1C [Example 39, methyl (2S,5S)-4-(1-(5-amino-4H-1,2,4-triazol-3-yl)piperidin-4-yl)-5-(4-chlorobenzyl)-2-methylpiperazine-1-carboxylate]
IC50 (recombinant human CHIT1): 10000 to 100000 nM

COC(=O)CN1C[C@H](Cc2ccc(Cl)cc2)N(C2CCN(c3nnc(N)[nH]3)CC2)C[C@@H]1C [Example 40, methyl 2-((2S,5S)-4-(1-(5-amino-4H-1,2,4-triazol-3-yl)piperidin-4-yl)-5-(4-chlorobenzyl)-2-methylpiperazin-1-yl)acetate]
IC50 (recombinant human AMCase): < 100 nM
IC50 (recombinant human CHIT1): 100 to 1000 nM

C[C@H]1CN(C2CCN(c3nnc(N)[nH]3)CC2)[C@@H](Cc2ccc(Cl)cc2)CN1CC(=O)O [Example 41, 2-((2S,5S)-4-(1-(5-amino-4H-1,2,4-triazol-3-yl)piperidin-4-yl)-5-(4-chlorobenzyl)-2-methylpiperazin-1-yl)acetic acid]
IC50 (recombinant human AMCase): < 100 nM
IC50 (recombinant human CHIT1): 100 to 1000 nM

Nc1nnc(N2CCC(N3C[C@@H]4CCCN4C[C@@H]3Cc3ccc(Cl)cc3)CC2)[nH]1 [Example 49, 5-(4-((3S,8aS)-3-(4-chlorobenzyl)hexahydropyrrolo[1,2-a]pyrazin-2(1H)-yl)piperidin-1-yl)-4H-1,2,4-triazol-3-amine]
IC50 (recombinant human AMCase): < 100 nM
IC50 (recombinant human CHIT1): 1000 to 10000 nM

C[C@H]1CN(C2CCN(c3nnc(N)[nH]3)CC2)[C@@H](Cc2ccc(Cl)cc2)C(C)(C)O1 [Example 53, 5-(4-((3S,6S)-3-(4-chlorobenzyl)-2,2,6-trimethylmorpholino)piperidin-1-yl)-4H-1,2,4-triazol-3-amine]
IC50 (recombinant human CHIT1): 10000 to 100000 nM
